In ChEMBL document CHEMBL6109139, “Rational Design of the First Dual Agonist at Trace Amine-Associated Receptor 1 and 5-HT2C Receptors Based on Binding Pocket Similarity for the Treatment of Schizophrenia and Alzheimer's Disease-Related Psychosis” (J Med Chem, 2025):
Calls of active or inactive are those of the source. The rule behind the calls is not given here.

Tests used:
[1] = target: T1, Trace amine-associated receptor 1 (Homo sapiens, UniProt Q96RJ0); test: Agonist activity at human TAAR1 extracted from CHO-K1 cell membrane coexpressing AGTRL1/Gi by cAMP assay; format: functional, cell membranes
T1 sequence (Q96RJ0 whole entry): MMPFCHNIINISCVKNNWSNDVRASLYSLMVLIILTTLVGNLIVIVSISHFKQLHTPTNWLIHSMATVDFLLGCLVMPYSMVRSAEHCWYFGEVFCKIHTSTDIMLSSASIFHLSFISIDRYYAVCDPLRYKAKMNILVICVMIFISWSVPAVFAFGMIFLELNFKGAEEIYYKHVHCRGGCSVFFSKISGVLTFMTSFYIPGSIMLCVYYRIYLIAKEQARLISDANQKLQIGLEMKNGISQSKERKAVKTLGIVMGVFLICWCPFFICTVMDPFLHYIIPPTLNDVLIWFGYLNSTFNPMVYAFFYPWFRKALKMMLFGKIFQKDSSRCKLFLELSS

HEK293 = test: Agonist activity at 5HT2CR […] mutant (unknown origin) expressed in HEK293 cells assessed as IP1 level by HTRF IP1 competitive binding assay; format: cell-based; conditions: Homo sapiens
[2] = AUClast in male mouse at 10 mg/kg, IG measured after 24 hrs; format: ADME, organism-based; conditions: in vivo, po
[3] = Ratio of drug concentration in male Sprague-Dawley rat brain to plasma at 5 mg/kg, IG measured after 6 hrs by LC-MS/MS analysis; format: ADME, organism-based; conditions: brain and plasma, po, read-out: BPR
[4] = target: 5-hydroxytryptamine receptor 2C (Rattus norvegicus) (UniProt P08909); test: Agonist activity at rat 5-HT2CR by measuring maximum efficacy relative to control; format: functional; conditions: filed as agonist
[5] = target: 5-hydroxytryptamine receptor 1A (Homo sapiens, UniProt P08908); test: Agonist activity at human 5-HT1A expressed in CHO cells coexpressing Galpha15 by FLIPR calcium assay; format: functional, cell-based
[6] = target: 5-hydroxytryptamine receptor 1A (Homo sapiens) (UniProt P08908); test: Agonist activity at human 5-HT1A expressed in CHO cells coexpressing Galpha15 by measuring maximum efficacy at 2 uM by FLIPR calcium assay relative to control; format: functional, cell-based; conditions: filed as agonist
[7] = target: 5-hydroxytryptamine receptor 3A (Homo sapiens) (UniProt P46098); test: Binding affinity to 5-HT3 (unknown origin) at 10 uM by radioligand binding assay relative to control
[8] = target: Cannabinoid receptor 1 (Homo sapiens) (UniProt P21554); test: Binding affinity to CB1 (unknown origin) at 10 uM by radioligand binding assay relative to control
[9] = target: Cannabinoid receptor 2 (Homo sapiens) (UniProt P34972); test: Binding affinity to CB2 (unknown origin) at 10 uM by radioligand binding assay relative to control
[10] = target: Prostaglandin G/H synthase 1 (Homo sapiens) (UniProt P23219); test: Binding affinity to COX1 (unknown origin) at 10 uM by radioligand binding assay relative to control
KCNQ1 = KCNQ1 (Homo sapiens, UniProt P51787); test: Binding affinity to human KCNQ1 receptor at 10 uM by radioligand binding assay relative to control; conditions: read-out: Activity
[11] = target: Tyrosine-protein kinase Lck (Homo sapiens) (UniProt P06239); test: Binding affinity to LCK receptor (unknown origin) at 10 uM by radioligand binding assay relative to control
[12] = target: Muscarinic acetylcholine receptor M1 (Homo sapiens) (UniProt P11229); test: Binding affinity to M1 receptor (unknown origin) at 10 uM by radioligand binding assay relative to control
[13] = Mutagenicity in Salmonella typhimurium TA98 by Ames test; format: toxicity; conditions: salmonella enterica subsp. enterica serovar typhimurium
[14] = Cardiotoxicity in conscious cynomolgus monkey assessed as normal spontaneous movement at 3.125 to 12.5 mg/kg, IG; format: toxicity, organism-based, Macaca fascicularis; conditions: in vivo, po, dose 3.125-12.5 mg/kg
[15] = Toxicity in male Sprague-Dawley rat assessed as suppression of food consumption at 7.5 mg/kg, po administered once daily for 4 weeks and measured after 4 weeks; format: organism-based; conditions: in vivo, 1344 h, time 8 weeks
[16] = Toxicity in female Sprague-Dawley rat assessed as change in blood glucose level at 2.5 to 7.5 mg/kg, po administered once daily for 4 weeks and measured after 4 weeks; format: organism-based; conditions: in vivo, 1344 h, dose 2.5-7.5 mg/kg, time 8 weeks
[17] = Toxicity in male Sprague-Dawley rat assessed as change in blood glucose level at 2.5 to 7.5 mg/kg, po administered once daily for 4 weeks and measured after 4 weeks; format: organism-based; conditions: in vivo, 1344 h, dose 2.5-7.5 mg/kg, time 8 weeks
[18] = Toxicity in male Sprague-Dawley rat assessed as piloerection at 7.5 mg/kg, po administered once daily for 4 weeks and measured after 4 weeks; format: organism-based; conditions: in vivo, 1344 h, time 8 weeks
[19] = Toxicity in female Sprague-Dawley rat assessed as slow respiration at 7.5 mg/kg, po administered once daily for 4 weeks and measured after 4 weeks; format: organism-based; conditions: in vivo, 1344 h, time 8 weeks
[20] = Toxicity in female Sprague-Dawley rat assessed as irritability at 2.5 mg/kg, po administered once daily for 4 weeks and measured after 4 weeks; format: organism-based; conditions: in vivo, 1344 h, time 8 weeks
[21] = Toxicity in male Sprague-Dawley rat assessed as irritability at 2.5 mg/kg, po administered once daily for 4 weeks and measured after 4 weeks; format: organism-based; conditions: in vivo, 1344 h, time 8 weeks
[22] = Toxicity in female Sprague-Dawley rat assessed as change in hematology at 2.5 to 7.5 mg/kg, po administered once daily for 4 weeks and measured after 4 weeks; format: organism-based; conditions: in vivo, 1344 h, dose 2.5-7.5 mg/kg, time 8 weeks
[23] = Toxicity in female Sprague-Dawley rat assessed as change in organ weight at 2.5 to 7.5 mg/kg, po administered once daily for 4 weeks and measured after 4 weeks; format: organism-based; conditions: in vivo, 1344 h, dose 2.5-7.5 mg/kg, time 8 weeks
[24] = Toxicity in male Sprague-Dawley rat assessed as minimal corneal neovascularization at 2.5 to 7.5 mg/kg, po administered once daily for 4 weeks and measured after 4 weeks; format: organism-based; conditions: in vivo, 1344 h, dose 2.5-7.5 mg/kg, time 8 weeks
[25] = Toxicity in male Sprague-Dawley rat assessed as corneal epithelial degeneration at 2.5 to 7.5 mg/kg, po administered once daily for 4 weeks and measured after 4 weeks; format: organism-based; conditions: in vivo, 1344 h, dose 2.5-7.5 mg/kg, time 8 weeks
[26] = Toxicity in female Beagle dog assessed as change in food consumption at 0.75 to 2.5 mg/kg, IG administered once daily for 4 weeks and measured after 4 weeks; format: organism-based, Canis lupus familiaris; conditions: in vivo, po, 1344 h, dose 0.75-2.5 mg/kg, time 8 weeks
[27] = Toxicity in female Beagle dog assessed as change in blood pressure at 0.75 to 2.5 mg/kg, IG administered once daily for 4 weeks and measured after 4 weeks; format: organism-based, Canis lupus familiaris; conditions: in vivo, po, 1344 h, dose 0.75-2.5 mg/kg, time 8 weeks
[28] = Toxicity in female Beagle dog assessed as change in prolactin at 0.75 to 2.5 mg/kg, IG administered once daily for 4 weeks and measured after 4 weeks; format: organism-based, Canis lupus familiaris; conditions: in vivo, po, 1344 h, dose 0.75-2.5 mg/kg, time 8 weeks
[29] = Toxicity in male Beagle dog assessed as change in bone marrow smears at 0.75 to 2.5 mg/kg, IG administered once daily for 4 weeks and measured after 4 weeks; format: organism-based, Canis lupus familiaris; conditions: in vivo, po, 1344 h, dose 0.75-2.5 mg/kg, time 8 weeks
[30] = Toxicity in female Beagle dog assessed as minimal decrease activity at 2.5 mg/kg, IG administered once daily for 4 weeks; format: organism-based, Canis lupus familiaris; conditions: in vivo, po, 672 h
[31] = Toxicity in male Beagle dog assessed as minimal decrease activity at 2.5 mg/kg, IG administered once daily for 4 weeks; format: organism-based, Canis lupus familiaris; conditions: in vivo, po, 672 h
[32] = Toxicity in female Beagle dog assessed as somnolence at 2.5 mg/kg, IG administered once daily for 4 weeks and measured after 4 weeks; format: organism-based, Canis lupus familiaris; conditions: in vivo, po, 1344 h, time 8 weeks

Chain of Tyrosine-protein kinase Lck (Homo sapiens) (P06239 2-509 limits assumed): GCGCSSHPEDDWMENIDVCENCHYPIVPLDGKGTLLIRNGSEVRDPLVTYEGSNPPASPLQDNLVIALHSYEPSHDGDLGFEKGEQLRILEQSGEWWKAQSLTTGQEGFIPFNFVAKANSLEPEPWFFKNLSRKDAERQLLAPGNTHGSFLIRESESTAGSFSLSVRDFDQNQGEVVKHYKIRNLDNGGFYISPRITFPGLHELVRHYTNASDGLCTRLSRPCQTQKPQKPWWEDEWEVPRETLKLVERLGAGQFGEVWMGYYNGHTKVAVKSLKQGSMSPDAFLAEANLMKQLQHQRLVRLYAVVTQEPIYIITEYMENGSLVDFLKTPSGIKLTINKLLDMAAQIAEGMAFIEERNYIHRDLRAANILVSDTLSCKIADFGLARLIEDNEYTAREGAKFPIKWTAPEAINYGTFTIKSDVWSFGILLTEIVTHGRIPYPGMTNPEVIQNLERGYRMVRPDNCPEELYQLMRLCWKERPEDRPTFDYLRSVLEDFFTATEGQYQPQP
Chain of 5-hydroxytryptamine receptor 3A (Homo sapiens) (P46098 whole entry): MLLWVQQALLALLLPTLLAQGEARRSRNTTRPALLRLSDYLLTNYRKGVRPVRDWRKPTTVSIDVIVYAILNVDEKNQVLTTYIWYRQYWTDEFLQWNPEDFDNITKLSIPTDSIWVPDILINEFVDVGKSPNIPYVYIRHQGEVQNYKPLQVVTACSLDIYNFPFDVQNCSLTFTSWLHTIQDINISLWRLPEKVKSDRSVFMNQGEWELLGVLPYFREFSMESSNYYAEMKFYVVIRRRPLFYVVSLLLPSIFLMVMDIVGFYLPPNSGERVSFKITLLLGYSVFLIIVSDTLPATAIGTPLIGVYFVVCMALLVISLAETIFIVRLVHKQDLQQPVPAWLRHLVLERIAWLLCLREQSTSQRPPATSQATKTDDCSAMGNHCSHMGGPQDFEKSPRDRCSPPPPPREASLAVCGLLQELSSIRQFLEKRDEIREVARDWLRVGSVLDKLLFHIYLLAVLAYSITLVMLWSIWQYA
Chain of Prostaglandin G/H synthase 1 (Homo sapiens) (P23219 whole entry): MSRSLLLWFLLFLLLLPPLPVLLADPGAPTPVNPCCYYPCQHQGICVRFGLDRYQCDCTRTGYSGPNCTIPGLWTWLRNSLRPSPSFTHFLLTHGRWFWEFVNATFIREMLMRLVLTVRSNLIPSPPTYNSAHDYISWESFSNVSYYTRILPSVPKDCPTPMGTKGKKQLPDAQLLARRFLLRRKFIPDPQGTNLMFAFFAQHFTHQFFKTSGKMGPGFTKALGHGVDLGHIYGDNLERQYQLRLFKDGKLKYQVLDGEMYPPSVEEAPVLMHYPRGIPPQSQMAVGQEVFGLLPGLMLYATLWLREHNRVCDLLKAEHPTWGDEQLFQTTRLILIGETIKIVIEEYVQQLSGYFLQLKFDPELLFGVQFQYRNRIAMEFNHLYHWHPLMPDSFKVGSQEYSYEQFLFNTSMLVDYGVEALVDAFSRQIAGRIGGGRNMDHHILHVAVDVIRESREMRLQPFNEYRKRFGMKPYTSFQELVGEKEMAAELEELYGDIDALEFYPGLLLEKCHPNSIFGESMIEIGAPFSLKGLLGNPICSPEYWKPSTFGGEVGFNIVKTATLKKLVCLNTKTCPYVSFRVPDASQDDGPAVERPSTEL
Chain of 5-hydroxytryptamine receptor 1A (Homo sapiens) (P08908 whole entry): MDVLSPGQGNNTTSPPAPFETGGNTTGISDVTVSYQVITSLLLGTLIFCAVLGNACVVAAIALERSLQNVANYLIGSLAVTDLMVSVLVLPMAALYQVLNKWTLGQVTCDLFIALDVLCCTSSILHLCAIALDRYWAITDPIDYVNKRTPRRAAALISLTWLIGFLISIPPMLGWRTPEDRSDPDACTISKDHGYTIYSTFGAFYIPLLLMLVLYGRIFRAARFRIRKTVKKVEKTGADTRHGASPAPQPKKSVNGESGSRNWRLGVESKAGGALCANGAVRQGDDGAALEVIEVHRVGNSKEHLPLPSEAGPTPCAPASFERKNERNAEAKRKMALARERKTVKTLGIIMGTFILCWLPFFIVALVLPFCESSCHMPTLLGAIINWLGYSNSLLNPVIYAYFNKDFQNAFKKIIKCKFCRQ
Chain of 5-hydroxytryptamine receptor 1A (P08908 whole entry): as above
Chain of Cannabinoid receptor 2 (Homo sapiens) (P34972 whole entry): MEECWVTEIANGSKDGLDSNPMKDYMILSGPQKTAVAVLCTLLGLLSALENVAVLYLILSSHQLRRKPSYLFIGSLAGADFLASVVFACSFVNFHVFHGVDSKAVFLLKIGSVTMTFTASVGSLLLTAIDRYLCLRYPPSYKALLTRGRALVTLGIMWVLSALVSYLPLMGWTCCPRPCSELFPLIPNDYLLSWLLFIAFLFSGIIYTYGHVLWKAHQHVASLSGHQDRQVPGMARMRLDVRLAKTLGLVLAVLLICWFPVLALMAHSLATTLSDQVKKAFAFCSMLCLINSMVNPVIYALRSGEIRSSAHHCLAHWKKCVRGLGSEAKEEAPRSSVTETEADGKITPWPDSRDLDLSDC
Chain of Cannabinoid receptor 1 (Homo sapiens) (P21554 whole entry): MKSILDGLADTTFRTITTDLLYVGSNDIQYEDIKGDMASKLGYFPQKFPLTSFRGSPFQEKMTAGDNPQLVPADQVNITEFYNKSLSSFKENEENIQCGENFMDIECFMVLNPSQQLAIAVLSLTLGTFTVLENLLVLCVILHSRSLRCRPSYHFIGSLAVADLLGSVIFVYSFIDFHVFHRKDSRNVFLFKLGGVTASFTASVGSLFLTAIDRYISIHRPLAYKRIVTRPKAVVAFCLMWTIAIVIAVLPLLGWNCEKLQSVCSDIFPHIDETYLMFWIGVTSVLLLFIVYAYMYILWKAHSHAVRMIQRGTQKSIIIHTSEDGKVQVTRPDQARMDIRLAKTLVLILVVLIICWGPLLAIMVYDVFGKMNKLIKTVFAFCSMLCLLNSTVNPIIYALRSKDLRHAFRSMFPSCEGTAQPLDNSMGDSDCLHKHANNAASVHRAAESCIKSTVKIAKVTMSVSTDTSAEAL
Chain of 5-hydroxytryptamine receptor 2C (Rattus norvegicus) (P08909 whole entry): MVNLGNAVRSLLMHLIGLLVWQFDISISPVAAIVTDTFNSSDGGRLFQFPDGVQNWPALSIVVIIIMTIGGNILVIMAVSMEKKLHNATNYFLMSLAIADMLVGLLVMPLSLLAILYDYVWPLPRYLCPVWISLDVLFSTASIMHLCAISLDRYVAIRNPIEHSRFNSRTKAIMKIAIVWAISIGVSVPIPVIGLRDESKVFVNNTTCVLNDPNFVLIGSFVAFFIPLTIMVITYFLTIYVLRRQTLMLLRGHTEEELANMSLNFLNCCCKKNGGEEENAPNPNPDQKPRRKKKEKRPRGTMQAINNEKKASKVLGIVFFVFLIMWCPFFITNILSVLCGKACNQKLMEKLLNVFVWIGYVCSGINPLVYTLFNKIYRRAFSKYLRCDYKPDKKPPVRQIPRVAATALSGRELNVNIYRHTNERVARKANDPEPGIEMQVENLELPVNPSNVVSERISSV
Chain of KCNQ1 (P51787 whole entry): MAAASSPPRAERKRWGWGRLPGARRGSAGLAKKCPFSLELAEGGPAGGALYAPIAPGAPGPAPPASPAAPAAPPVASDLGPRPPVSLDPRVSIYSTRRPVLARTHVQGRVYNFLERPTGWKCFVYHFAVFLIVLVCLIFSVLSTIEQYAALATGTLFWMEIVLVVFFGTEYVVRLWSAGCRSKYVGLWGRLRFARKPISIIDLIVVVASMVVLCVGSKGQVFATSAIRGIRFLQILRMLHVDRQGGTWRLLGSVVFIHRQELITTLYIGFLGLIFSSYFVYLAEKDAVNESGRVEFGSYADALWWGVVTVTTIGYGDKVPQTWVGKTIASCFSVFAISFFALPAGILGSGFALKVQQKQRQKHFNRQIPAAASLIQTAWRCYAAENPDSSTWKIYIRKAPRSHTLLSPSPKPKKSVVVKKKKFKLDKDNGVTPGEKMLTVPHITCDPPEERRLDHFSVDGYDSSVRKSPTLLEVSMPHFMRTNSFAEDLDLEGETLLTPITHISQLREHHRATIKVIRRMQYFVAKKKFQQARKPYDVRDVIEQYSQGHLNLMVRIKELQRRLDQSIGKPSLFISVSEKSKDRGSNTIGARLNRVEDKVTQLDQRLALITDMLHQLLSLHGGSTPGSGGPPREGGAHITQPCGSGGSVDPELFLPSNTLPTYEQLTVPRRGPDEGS
Chain of Muscarinic acetylcholine receptor M1 (Homo sapiens) (P11229 whole entry): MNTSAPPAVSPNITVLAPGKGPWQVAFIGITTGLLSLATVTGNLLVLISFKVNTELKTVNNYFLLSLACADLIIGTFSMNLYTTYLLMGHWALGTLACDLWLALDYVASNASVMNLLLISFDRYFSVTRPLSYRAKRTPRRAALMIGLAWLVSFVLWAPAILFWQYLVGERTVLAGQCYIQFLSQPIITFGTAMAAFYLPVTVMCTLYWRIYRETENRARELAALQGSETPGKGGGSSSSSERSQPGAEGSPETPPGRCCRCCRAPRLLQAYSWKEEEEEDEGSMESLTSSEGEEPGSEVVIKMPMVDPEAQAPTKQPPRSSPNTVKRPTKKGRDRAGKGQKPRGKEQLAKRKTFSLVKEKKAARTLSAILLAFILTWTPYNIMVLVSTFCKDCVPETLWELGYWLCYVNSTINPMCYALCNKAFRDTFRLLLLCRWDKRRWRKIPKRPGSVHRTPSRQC

c1cc2c(s1)[C@@H]1CNCCN1CC2
EC50 [1]: 0.022 µM | Activity (HEK293): inactive | AUC(0-t) at 24 h [2]: 21.6 µM·h | Kp at 6 h [3]: 4.22 | Emax [4]: 108% | EC50 [5]: 31.5 µM | Emax [6]: 48.3% | Activity [7]: 13% | Activity [8]: 2.45% | Activity [9]: 2.7% | Activity [10]: 33.3% | activity at 10 µM (KCNQ1): 28.4% | Activity [11]: 3.4% | Activity [12]: 26.5% | Activity [13]: Non-toxic | Activity [14]: Non-toxic | Activity [15]: Non-toxic | Activity [16]: Non-toxic | Activity [17]: Non-toxic | Activity [18]: Non-toxic | Activity [19]: Non-toxic | Activity [20]: Non-toxic | Activity [21]: Non-toxic | Activity [22]: Non-toxic | Activity [23]: Non-toxic | Activity [24]: Non-toxic | Activity [25]: Non-toxic | Activity [26]: Non-toxic | Activity [27]: Non-toxic | Activity [28]: Non-toxic | Activity [29]: Non-toxic | Activity [30]: Toxic | Activity [31]: Toxic | Activity [32]: Non-toxic
